The values that follow come from patent US5140037A, “Treatment of central nervous system disorders with imidazole angiotensin-II receptor antagonists” (E. I. du Pont de Nemours and Company, priority 1990, dated 1992).

“Also recorded” adds a separate entry of the source.

For one test, the target named is T1, AII-2 receptor (Rattus norvegicus, UniProt P35351).
T1 sequence (P35351 1-363): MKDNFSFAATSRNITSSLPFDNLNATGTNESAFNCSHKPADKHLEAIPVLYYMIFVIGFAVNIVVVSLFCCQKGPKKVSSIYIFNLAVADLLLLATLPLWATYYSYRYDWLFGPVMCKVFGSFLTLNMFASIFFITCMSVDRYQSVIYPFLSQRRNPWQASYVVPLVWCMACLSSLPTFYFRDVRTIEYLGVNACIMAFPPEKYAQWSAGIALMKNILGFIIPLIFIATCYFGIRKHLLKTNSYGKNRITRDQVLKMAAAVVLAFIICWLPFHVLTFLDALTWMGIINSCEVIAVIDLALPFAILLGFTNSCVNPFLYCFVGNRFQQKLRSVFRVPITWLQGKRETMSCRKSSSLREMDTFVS
Nature of the test: biochemical.

A further test deals with AII-1 receptor subtype. Put plainly: Block of AII receptor subtypes, AII-1 (statement in words). Format: binding.
Another test relates to AII-2 receptor subtype. Nature of the test: Block of AII receptor subtypes, AII-2 (statement in words). Type of test: binding.
Another test concerns the target AII-1 receptor. Put plainly: AII-1 site binding: displacement of [125I]AII in adrenal cortex microsomes in presence of 10^-5 M EXP655 (Table 1). More on the design: species or system rat. To be noted: 10^-5 M EXP655 present, [125I]AII displacement. (In a radioligand displacement assay an active substance lowers the binding of a labelled ligand.)
Test [1] concerns renin-induced amnesia (passive avoidance). Nature of the test: Renin-disrupted passive avoidance retention. Type of test: in vivo, male Sprague-Dawley rats. Particulars: for effect on renin-induced amnesia: IVT, co-administered with renin. On the procedure:
RENIN-DISRUPTED PASSIVE AVOIDANCE RETENTION
Experimentally naive male Sprague-Dawley rats 100 to 125 days oil (Charles River Breeding Laboratories, Kingston, N.Y.), weighing between 175 to 200 gm were used. The animals were housed four per cage (45.0L×20.0H×26.0W cm) with free access to food and water. They were maintained on a 12 h light/dark cycle (lights on 0600 h) and at a room temperature of 22±1° C. with relative humidity of 50±10%.
The experimental sessions were conducted in a two-compartment passive avoidance box. One compartment, made of clear plastic with a perforated clear plastic floor, measured 21(L)×24.5(H)×17(W) cm and was illuminated with a 60 watt incandescent light bulb placed 36 cm above the floor. The other compartment, made of black plastic, measured 30.5 (L)×20.3 (H)×21.5 (W) cm with a floor made of 4 mm stainless steel rods spaced 1.2 cm apart. A grid floor shocker (Coulbourn Instruments) was connected to the steel rods and provided scrambled footshock. The two compartments were separated by a solenoid-operated slide door (Lafayette Instrument Co., Lafayette, Ind.). An electronic counter (Coulbourn Instruments), triggered by the opening or closing of the slide door, recorded acquisition and retention latencies (latencies were defined as the time it took an animal to enter the dark compartment).
Passive avoidance training began by placing the rat into the clear compartment of the two-compartment passive avoidance box. Following a 10 sec delay, the slide door to the dark compartment was raised. Once the rat moved completely into the dark compartment (all four paws on the shock grid floor) the slide door was lowered, and after a 10 sec. delay, a 1.0 mA shock was applied to the grid floor for three sec. A second three s shock was delivered after an additional 10 sec delay. The rats were immediately removed from the dark compartment and returned to their home cage. A retention test was given 24 h later. It proceeded in the same manner as the training session except that no shock was applied to the grid floor when the rats were provided access to the dark compartment for a maximum of 300 sec.
All drugs were administered IVT 60 minutes prior to acquisition training in a volume of 5 μl. Doses are expressed as the free base weight of each compound.

Test [2] has as its system AII binding sites in the brain. Nature of the test: Binding of AII antagonists to sections of brain slices.
For test [3], the system named is scopolamine-induced amnesia. Particulars: three times per day, 1, 3 and 10 mg/kg PO; cited from earlier work.
The next test relates to uphill avoidance. To be noted: acute, 30 mg/kg PO; cited from earlier work.
The test system of test [4] is scopolamine-induced impairment of eight arm radial maze performance. Particulars: 3 mg/kg IP; cited from earlier work.
Test [5] deals with ACh in the striatum and hypothalamus. Particulars: acute or repeated administration; cited from earlier work.
Test [6] relates to memory of previously learned tasks. Particulars: in vivo; cited from earlier work.
For another test, the system named is avoidance learning. Particulars: cited from earlier work.
The next test relates to light/dark habituation. To be noted: cited from earlier work.
Test [7] relates to passive avoidance response. Particulars: injected into dorsal neostriatum; cited from earlier work.
Test [8] has as its system potassium-stimulated release of [3H]ACh. Particulars: rat entorhinal cortex, cited from earlier work.
The test system of test [9] is AII in cerebrospinal fluid (CSF). To be noted: cited from earlier work.

What is called IC50 is the concentration that inhibits the measured activity by half. Turning to `CCCc1nc(-c2ccccc2)c(C=O)n1Cc1ccc(-c2ccccc2-c2nnn[nH]2)cc1` [Compound A, 1-[(2'-(1H tetrazol-5-yl)biphenyl-4-yl)methyl]-4-phenyl-2-propylimidazole-5-carboxaldehyde], the IC50 against AII-2 receptor turned out to be 2400 nM; at AII-1 receptor, 22 nM. In the test with AII-1 receptor subtype, the “AII-1 receptor block / affinity” value is “show affinity for both AII-1 and AII-2 receptors”. The “AII-2 receptor block / affinity” value in the test with AII-2 receptor subtype is “show affinity for both AII-1 and AII-2 receptors”.

Regarding `CCCc1nc(-c2ccccc2)c(C=O)n1Cc1ccc(-c2ccccc2C(=O)O)cc1` [Compound B, 1-[(2'-carboxybiphenyl-4-yl)methyl]-4-phenyl-2-propylimidazole-5-carboxaldehyde], the results for the IC50 against AII-2 receptor and at AII-1 receptor were 4300 nM and 290 nM, respectively. Further, in the test with AII-1 receptor subtype, the “AII-1 receptor block / affinity” value was “show affinity for both AII-1 and AII-2 receptors”. For the same molecule, in the test with AII-2 receptor subtype, the “AII-2 receptor block / affinity” value was “show affinity for both AII-1 and AII-2 receptors”.

In the case of `CCCc1nc(C(F)(F)F)c(C(=O)O)n1Cc1ccc(-c2ccccc2-c2nnn[nH]2)cc1` [Compound C, 2-n-propyl-1-[(2'-(1H -tetrazol-5-yl)biphenyl-4-yl)methyl]-4-trifluoromethylimidazole-5-carboxylic acid], the “AII-1 receptor block / affinity” value in the test on AII-1 receptor subtype is given as “AII-1 receptor antagonists”. In addition, in test [1], the “effect on renin-induced amnesia” value is “protected against the amnesia”.

`CCCc1nc(C(F)(F)F)c(CO)n1Cc1ccc(-c2ccccc2-c2nnn[nH]2)cc1` [Compound D, 2-n-propyl-5-hydroxymethyl-1-[(2'-(1H-tetrazol-5-yl)biphenyl-4-yl)methyl]-4-trifluoromethylimidazole]: the “AII-1 receptor block / affinity” value with AII-1 receptor subtype is reported as “AII-1 receptor antagonists”. For the same molecule, in test [1], the “effect on renin-induced amnesia” value is recorded as “protected against the amnesia”.

In the case of `Cc1cc(Cn2cnc3c2CC(C(=O)O)N(C(=O)C(c2ccccc2)c2ccccc2)C3)ccc1N` (stereo not drawn) [EXP655, 1-(4-amino-3-methylphenyl)methyl-5-diphenylacetyl-4,5,6,7-tetrahydro-1H-imidazo[4,5-c]pyridine-6-carboxylic acid], in test [2], the “sensitivity of AII binding sites in the brain” value was “the majority of binding sites in the brain are DTT-insensitive and EXP655-sensitive”. For the same molecule, in test [1], the “effect on renin-induced amnesia” value is “much less effective in preventing the amnesia”. On AII-1 receptor, the IC50 stood at 300000 nM.

In the case of `CCOC(=O)C(CCc1ccccc1)NC(C)C(=O)N1CC2(CC3CCC2CC3)CC1C(=O)O` (stereo not drawn) [Hoe 288], the “scopolamine-induced PA amnesia” value in [3] was “partially reversed the amnesia”. Moreover, the “uphill avoidance performance during retention testing” value with uphill avoidance is recorded as “improved performance during retention testing”. For the same molecule, the “effects of muscarinic receptor blockade on radial maze performance” value in test [4] is reported as “partially antagonized the effects of muscarinic receptor blockade”. In test [5], the “ACh in the striatum and hypothalamus” value is “significant decrease in ACh in the striatum and hypothalamus”.

Take `NCCCC[C@H](OP(=O)(O)CCCCc1ccccc1)C(=O)N1CCC[C@H]1C(=O)O` [SQ 29852]: in [6], the “anticholinergic effect on performance” value is listed as “ameliorate, at least in part, an anticholinergic effect on performance” and the “effects on memory of previously learned tasks” value is listed as “protective effects on memory of previously learned tasks”.

`CNCC(=O)N[C@@H](CCCN=C(N)N)C(=O)N[C@H](C(=O)N[C@@H](Cc1ccc(O)cc1)C(=O)N[C@H](C(=O)N[C@@H](Cc1cnc[nH]1)C(=O)N1CCC[C@H]1C(=O)N[C@@H](C)C(=O)O)C(C)C)C(C)C` [Saralasin]: the concentration for half-maximal inhibition (IC50) on AII-2 receptor amounted to 0.3 nM; on AII-1 receptor, 0.7 nM.

For `C[C@H](CS)C(=O)N1CCC[C@H]1C(=O)O` [captopril], the renin-induced avoidance disruption entry in the test on avoidance learning (captopril IVT prior to renin) is “prevented the renin-induced avoidance disruption”. The “scopolamine-induced disruption of light/dark habituation performance” value in the test with light/dark habituation (daily treatment) is given as “prevented”. For the same molecule, the “rate of acquisition of light/dark habituation performance” value with light/dark habituation (subchronic treatment) is recorded as “increased the rate of acquisition of light/dark habituation performance”. The “effect of captopril on renin-induced amnesia” value in test [1] (IVT captopril, applicant's laboratory) was “renin-induced amnesia can be prevented”.

For the molecule `NC(=O)[C@@H]1CCCN1C(=O)[C@H](Cc1cnc[nH]1)NC(=O)[C@@H]1CCC(=O)N1` [thyrotropin releasing hormone], in test [7], the “retention of passive avoidance response” value is reported as “no effect”.

For the molecule “AII: Angiotensin II (AII), a circulating hormone, now thought to act as a neuropeptide in the central nervous system (DRVYIHPF; Angiotensin-2; UniProt P01019 25-32, looked up)”, in [7], the “retention of passive avoidance response” value is “showed a disruption in retention of a PA response”. Also, in test [8], the “basal ACh levels” value is “without effects on basal levels” and the “potassium-stimulated release of ACh” value is “reduced potassium-stimulated release of ACh”. For the same molecule, at AII-1 receptor, the IC50 was 1.5 nM.

Regarding “[1-sarcosine, 8-threonine]angiotensin II”, the “antagonism of AII effect on ACh release” value in test [8] (with AII) is recorded as “antagonized”.

Consider lysine-8-vasopressin, for which the “retention of passive avoidance response” value in [7] is “no effect”.

B1: renin: Renin (Sigma Chemicals), a stimulator of endogenous AII biosynthesis (protein, UniProt P00797 67-406, looked up)
Renin: LTLGNTTSSVILTNYMDTQYYGEIGIGTPPQTFKVVFDTGSSNVWVPSSKCSRLYTACVYHKLFDASDSSSYKHNGTELTLRYSTGTVSGFLSQDIITVGGITVTQMFGEVTEMPALPFMLAEFDGVVGMGFIEQAIGRVTPIFDNIISQGVLKEDVFSFYYNRDSENSQSLGGQIVLGGSDPQHYEGNFHYINLIKTGVWQIQMKGVSVGSSTLLCEDGCLALVDTGASYISGSTSSIEKLMEALGAKKRLFDYVVKCNEGPTLPDISFHLGGKEYTLTSADYVFQESYSSKKLCTLAIHAMDIPPPTGPTWALGATFIRKFYTEFDRRNNRIGFALAR
For the molecule B1, the avoidance learning result in the test with avoidance learning (renin IVT) is “disruption of avoidance learning”. Besides, the “AII in CSF after renin” value in test [9] (renin IVT) was “about 5,000 fmol per mL”. Also, in test [9] (starting level), the “AII in CSF before renin” value was 40 fmol per mL. Besides, the “memory effect of renin” value in test [1] (renin IVT) is listed as “produces a reliable memory deficit; also recorded: produces a dose-related amnesia in a PA task”. Moreover, the “Median Retention Latency” value in test [1] (renin alone 5.0 μg/5 μL IVT) was 17 s.
